Assay results reported in patent US11154522B2, “Compositions and methods for treating acne vulgaris” (priority 2016, dated 2021).
Like-named read-outs stand apart in the source and are kept apart here. One block for each molecule: values may come before it.

Assay: Delivery of succinic acid to epidermis and dermis in presence of salicylic acid, Franz diffusion cells, different skin sample (Example 2)
Method: Skin from a single donor was stored frozen at −20° C. until needed. The skin was removed from the freezer, allowed to equilibrate to room temperature, and then cut to ˜2 cm×2 cm pieces before testing. FDCs with a 3.3 ml receiver volume and 0.55 cm^2 diffusional area were used. De-aerated isotonic phosphate buffered saline solution at pH 7.4 (PBS) containing 0.01% NaN3 was used as a solvent system for the receptor well medium (“Receptor Fluid”). Receptor wells were filled with the Receptor Fluid. The upper flange of the FDC receptor well was coated with vacuum grease to ensure a complete seal. Pieces of skin were mounted on the receptor cells, the conventional donor wells applied, and the assembly clamped together with uniform pressure using a pinch clamp. After assembly of the FDC, the skin was allowed to hydrate for 20 minutes in contact with the receptor fluid. Any FDCs that evidenced any leakage during this period were discarded. The integrity and quality of the skin was tested prior to application of the test formulations through measurement of the transdermal flux of tritiated water. Skin pieces evidencing an excessively high tritiated water flux were discarded and the tritiated water fluxes of accepted skin pieces was used to guide the distribution of formulation samples over the skin piece set. After removal of the tritiated water samples from the donor wells, the clamp and donor wells were removed. The skin was tapped dry with a KimWipe® and the receptor well solutions was replenished with fresh receptor well medium. Six replicates of each of the formulations were examined, in a batch of 36 FDC's; each test formulation was applied at a quasi-infinite dose of 20 μL cm^2 on skin maintained at 32° C. throughout the experiment. The Receptor Fluid was stirred with a magnetic stir bar throughout. A sample was abstracted from each receptor well at each of 4, 8 and 20 h, the receptor well being replenished with fresh Receptor Fluid. The concentration of succinic acid in each receptor well sample was assayed by a verified LC-MS analytical method. At the end of the experiment (20 h), residual formulation was removed from the skin exterior with a pipette. The FDCs were then be disassembled and the skin washed twice with EtOH-Water 50-50 and wiped dry with a KimWipe®. The successive topmost layers of the stratum corneum were removed by three (3) times applying cellophane tape to the skin and then pulling off the tape. Tape strippings were discarded, the material present in those peripheral layers being considered absorbed only superficially. The epidermal and dermal layers were separated, using mild heating if required. The epidermal and dermal sections were placed into 4 ml glass vials. DMSO was used as an extraction solvent (“Extraction Solvent”) for succinic acid from epidermal and dermal tissue. Two ml of the Extraction Solvent was added to each vial and the vials allowed to incubate for 24 h. At the end of the extraction period, aliquots of the Extraction Solvent were drawn, filtered and analyzed by LC-MS.
A topical formulation was prepared that contained 2% succinic acid, 1% salicylic acid (acne API), 15% ethanol, 15% propylene glycol, 3% Brij 30 and 15% of dimethyl isosorbide. The delivery of succinic to epidermis and dermis was tested as described in Example 1 in an independent experiment, using a different skin sample.

Molecule: CCOCCOCCO [Transcutol P]
enhancement of delivery of succinic acid by other penetration enhancing molecules: did not result in enhanced delivery of succinic acid

Molecule: Polysorbate 80
enhancement of delivery of succinic acid by other penetration enhancing molecules: did not result in enhanced delivery of succinic acid

Molecule: Capric tryiglyceride GTCC
enhancement of delivery of succinic acid by other penetration enhancing molecules: did not result in enhanced delivery of succinic acid

succinic acid dose delivered to epidermis and dermis (human, 22 h, 2 %, pH 7.4): 33.22% | fold lower amount delivered in absence vs presence of Brij30 and dimethyl isosorbide (human, 22 h, pH 7.4): 4.4 fold | succinic acid dose delivered to epidermis and dermis (human, 22 h, pH 7.4): 7.51%
Molecule: O=C(O)CCC(=O)O [succinic acid]

Molecule: Polysorbate 20
enhancement of delivery of succinic acid by other penetration enhancing molecules (present in the formulation instead of Brij30 and dimethyl isosorbide): did not result in enhanced delivery of succinic acid
